Source: patent US20240408096A1, “DOSING REGIMENS FOR ORAL ALK2 KINASE INHIBITORS” (BioCryst Pharmaceuticals, Inc., priority 2020, published 2024)
“Also recorded” adds a separate entry of the source.

Experiments:
[1] = Phase 1 Part 2 (MAD) plasma PK; assay type: in vivo, human; details: for Cmax / AUC0-24 / Tmax / AUCtau / Ctau / t1/2: Part 2 MAD; for Cmax / AUC0-24 / AUCtau / Ctau: geometric mean (CV%); for Tmax / t1/2: median (min, max)
Protocol: (§1) Four sequential MAD cohorts were dosed.
(§2) For each cohort of Part 2, the daily dose of study drug was administered as a single dose (1 time daily or QD). Similar to Part 1 of the study, following a screening period to determine eligibility, subjects in each cohort entered the CRU on the […] of Day −1. Study eligibility was re-confirmed upon admission to the CRU, and subjects remained in the CRU overnight prior to dosing on Day 1. Subjects received a final morning dose of study drug on the last day of dosing. Subjects were discharged from the CRU following sample collection on Day 11. Dosage administration was supervised by study personnel and all subjects completed dosing per protocol. […] Subjects returned to the CRU on Day 23 (+2 days) for final follow-up safety assessments.
Serial venous blood samples were withdrawn via an indwelling cannula or by venipuncture according to the schedule in Tables 4 and 5 for Parts 1 and 2, respectively. Samples were collected into 4 mL lithium heparin tubes. The acceptable deviations from the nominal blood sampling times in Part 1 and Part 2 are as follows: the pre-dose blood sample will be taken ≤1 hour before dosing; 0 to 1 hour post-dose samples will be taken within +2 minutes of the nominal post-dose sampling time; >1 to 12 hours post-dose samples will be taken within +10 minutes of the nominal post-dose sampling time; and >12 hours post-dose samples will be taken within +30 minutes of the nominal post-dose sampling time if subjects are resident in the clinic. […]
In all derivations of PK parameters, 0 will be substituted for concentrations below the quantification limit (BQL) of the assay. Samples that are BQL but are between 2 samples with detectable concentrations will be excluded from PK analysis.
Dose proportionality was evaluated over all fasted doses within a study part based upon AUC0-inf (Part 1), AUCtau (Part 2), AUC0-t, and Cmax using the power model. The analysis was performed for Day 1 (Parts 1 and 2) and Day 7 (Part 2).
Dose proportionality for PK parameters was assessed by restricted maximum likelihood using SAS PROC MIXED (SAS STAT software, Cary N.C.). The mean slope was estimated from the power model and the corresponding 90% confidence interval (CI) calculated. Dose proportionality was also examined using an analysis of variance (ANOVA) method, where PK parameters for each dose were compared with a reference dose on a pair-wise basis. The ratio of geometric least squares (GLS) means and the corresponding 90% CI was estimated for each PK parameter of interest.
Accumulation ratios were calculated using AUC values from serial sampling after the first and last dose in Part 2. […] A mixed-effects model with a fixed effect for day and a random subject effect was used to estimate the difference between AUCtau and AUC0-t on the log scale.
Time to steady-state was evaluated in Part 2 using Ctrough (observed plasma concentration immediately before dosing) levels, where sufficient samples existed to determine steady state. The following timepoints were used in the analysis for once daily dosing: 24, 48, and 72 hours post dose (for Day 1) and pre-dose and 24 hours post dose on the last day of dosing (Day 7).

[2] = ECG / QTc after oral administration to dogs; assay type: in vivo, dog; details: HEDs up to 667 mg based on a 60 kg subject
[3] = Phase 1 Part 1 (SAD) safety and tolerability; assay type: in vivo, human; details: healthy subjects
Protocol: (§3) The primary outcome measure of Part 1 and Part 2 will be: (1) measurement of the safety and tolerability by subject incidence of graded treatment-emergent adverse events (TEAEs), laboratory abnormalities, and changes to vital signs, ECGs, cardiac telemetry, and physical examination findings.
Four sequential SAD cohorts were dosed.
For each cohort of Part 1, the daily dose of study drug was administered as a single dose (1 time daily or QD). In Part 1 of the study, following a screening period to determine eligibility, subjects in each cohort entered the Phase 1 clinical research unit (CRU) on the afternoon of Day −1. Study eligibility was re-confirmed upon admission to the CRU, and subjects remained in the CRU overnight prior to dosing on Day 1. Following Day 1, subjects remained in the CRU for an additional 72 hours post-dose (i.e., discharge on Day 4) to enable collection of plasma and urine for PK samples and other study assessments. Subjects were discharged from the CRU following plasma PK sample collection on Day 4 and returned on Day 16 (+2 days) for a final follow-up visit.

[4] = Phase 1 Part 2 (MAD) safety and tolerability; assay type: in vivo, human; details: healthy subjects
Protocol: as §3, §1, §2

- Day 1 AUC0-24, geometric least square mean ([1]; 5 mg QD): 797.89 ng·h/mL
- Day 7 AUCtau, geometric least square mean ([1]; 5 mg QD): 915.48 ng·h/mL
- Day 1 AUC0-24, geometric least square mean ([1]; 10 mg QD): 1703.36 ng·h/mL
- Day 7 AUCtau, geometric least square mean ([1]; 10 mg QD): 2022.93 ng·h/mL
- Day 1 AUC0-24, geometric least square mean ([1]; 15 mg QD): 2204.47 ng·h/mL
- Day 7 AUCtau, geometric least square mean ([1]; 15 mg QD): 2303.26 ng·h/mL
- Day 1 AUC0-24, geometric least square mean ([1]; 20 mg QD): 3159.74 ng·h/mL
- Day 7 AUCtau, geometric least square mean ([1]; 20 mg QD): 3184.88 ng·h/mL
- median Tmax ([1]; Part 2, Days 1 and 7, all dosing cohorts): approximately 2.0 hours
- time to steady state ([1]; Part 2, QD dosing, from trough concentrations): ≤ 3 days
- accumulation ([1]; Part 2, each MAD cohort, 7 days QD): No accumulation or minimal accumulation
- Cmax ([1]; Day 1, 5 mg QD oral, fasted): 105.0 (45.9) ng/ml
- AUC0-24 ([1]; Day 1, 5 mg QD): 797.9 (37.8) ng · h/mL
- Tmax ([1]; Day 1, 5 mg QD): 2.009 (1.01, 4.01) h
- Cmax ([1]; Day 1, 10 mg QD oral, fasted): 217.0 (46.2) ng/ml
- AUC0-24 ([1]; Day 1, 10 mg QD): 1703 (37.4) ng · h/mL
- Tmax ([1]; Day 1, 10 mg QD): 2.009 (2.01, 3.01) h
- Cmax ([1]; Day 1, 15 mg QD oral, fasted): 324.2 (34.9) ng/ml
- AUC0-24 ([1]; Day 1, 15 mg QD): 2204 (39.0) ng · h/mL
- Tmax ([1]; Day 1, 15 mg QD): 2.006 (1.01, 4.00) h
- Cmax ([1]; Day 1, 20 mg QD oral, fasted): 464.1 (26.1) ng/ml
- AUC0-24 ([1]; Day 1, 20 mg QD): 3160 (21.2) ng · h/mL
- Tmax ([1]; Day 1, 20 mg QD): 2.007 (2.00, 3.00) h
- AUCtau ([1]; Day 7, 5 mg QD): 915.5 (40.7) ng · h/mL
- Cmax ([1]; Day 7, 5 mg QD): 117.0 (44.4) ng/ml
- Ctau ([1]; Day 7, 5 mg QD): 10.70 (72.6) ng/ml
- Tmax ([1]; Day 7, 5 mg QD): 2.007 (1.01, 3.03) h
- t1/2 ([1]; Day 7, 5 mg QD): 8,846 (4.73, 25.1) h
- AUCtau ([1]; Day 7, 10 mg QD): 2023 (29.7) ng · h/mL
- Cmax ([1]; Day 7, 10 mg QD): 238.0 (22.6) ng/ml
- Ctau ([1]; Day 7, 10 mg QD): 25.47 (68.1) ng/ml
- Tmax ([1]; Day 7, 10 mg QD): 2.021 (2.01, 3.01) h
- t1/2 ([1]; Day 7, 10 mg QD): 8.512 (6.09, 12.3) h
- AUCtau ([1]; Day 7, 15 mg QD): 2303 (24.9) ng · h/mL
- Cmax ([1]; Day 7, 15 mg QD): 333.5 (29.7) ng/ml
- Ctau ([1]; Day 7, 15 mg QD): 19.02 (59.6) ng/ml
- Tmax ([1]; Day 7, 15 mg QD): 2.006 (1,01, 3.00) h
- t1/2 ([1]; Day 7, 15 mg QD): 7.534 (4.05, 12.2) h
- AUCtau ([1]; Day 7, 20 mg QD): 3185 (24.4) ng · h/mL
- Cmax ([1]; Day 7, 20 mg QD): 413.9 (14.9) ng/ml
- Ctau ([1]; Day 7, 20 mg QD): 30.75 (66.5) ng/ml
- Tmax ([1]; Day 7, 20 mg QD): 2.001 (1.00, 3.00) h
- t1/2 ([1]; Day 7, 20 mg QD): 8.332 (4.61, 11.0) h
Structure (SMILES): COc1cc(-n2cnc(Nc3nc(N4CCC[C@H]4C(N)=O)nc4sccc34)c2)cc(OC)c1OC.O=C(O)CC(O)(CC(=O)O)C(=O)O [Compound A]
- dose proportionality of plasma exposure ([1]; Part 2, multiple oral doses 5 to 20 mg, healthy subjects): exhibits dose proportionality; also recorded: approximately linear and dose proportional
- dose proportionality of steady state Cmax ([1]; Part 2 multiple ascending oral dose cohorts (FIG. 7)): approximately linear and dose-proportional
- dose proportionality of steady state AUCtau ([1]; Part 2 multiple ascending oral dose cohorts (FIG. 8)): approximately linear and dose-proportional
- prolongation of corrected QT interval (QTc) or other ECG changes [2]: did not induce prolongation of corrected QT interval (QTc)
- safety and tolerability ([3]; Part 1, single ascending oral doses 5 mg to 25 mg): safe and generally well tolerated
- grade 3 or 4 adverse events ([3]; Part 1, single oral doses 5 mg to 25 mg): no grade 3 or 4 adverse events
- grade 3 or 4 adverse events ([4]; Part 2, 5 mg to 20 mg QD over 7 days): no grade 3 or 4 adverse events
- safety and tolerability ([4]; Part 2, multiple ascending oral doses 5 mg to 20 mg QD over 7 days): safe and generally well tolerated
